Key:
[1] = system: normal prostate CRL11611 cells; test: Annexin-V apoptosis assay by flow cytometry, normal prostate CRL11611; assay type: cell-based, human; settings: normal CRL11611, 48 hr; Ptxl 1 nM, p28 50 μM, aurA/aurB 0.5-50 μM
Experimental: (§1) FIG. 7A-7D: Determination of apoptotic cell death. Prostate cancer cell lines (7A: LNCaP, 7B: DU145 and 7C: PC3) and normal prostate CRL11611 cells (7D) were exposed to the indicated agents for 48 hr and stained using apoptosis assay kits according to the manufacturer's instructions. The samples were analyzed by flow cytometry. Mean±SE (N=3).
(§2) After 48 hr, annexin-V apoptosis assays (Thermo Fisher Scientific) were conducted to detect apoptotic cells. At least 10,000 cells in each case were analyzed by FACS (RRC, UIC).

[2] = system: Human cancer cells; test: MTT cell viability assay, human cancer cell panel; assay type: cell-based; settings: 5-100 μM, 24 hr, 37° C.
Experimental: (§3) Cell viability was detected by MTT assays, and the control (PBS-treated) cells were considered 100% viable. Mean±SE (N=3). *P<0.05, **P<0.01, ***P<0.001.
Cytotoxicity assay: The MTT assay was performed as we previously described (Cha et al., Cancer Research 2020, 80: 1615-1623).

[3] = Water solubility of peptides
[4] = system: PC3 cells; test: Annexin-V apoptosis assay by flow cytometry, PC3; assay type: cell-based, human; settings: PC3, 48 hr; Ptxl 1 nM, p28 50 μM, aurA/aurB 0.5-50 μM
Experimental: as §1, §2

[5] = system: DU145 prostate cancer cells; test: MTT cell viability assay, DU145 prostate cancer cells; assay type: cell-based, human; settings: DU145 (p53-mutant, AR−), 24-72 hr; paclitaxel 1 nM
From the text: as §3
(§4) Cell lines and culture: Human cancer and noncancer (immortalized and nonimmortalized) cell lines were obtained from the American Type Culture Collection [prostate cancer (PC3, DU145 and LNCaP), normal prostate (CRL11611), breast cancer (MCF-7), ovarian cancer (SK-OV3 adenocarcinoma), lung cancer (A549)]. MDD2 breast cancer cells (p53 dominant-negative) were provided courtesy of Dr Andrei V. Gudkov, Roswell Park Cancer Institute. 20 All cell lines were cultured in MEM-E (Invitrogen) supplemented with 10% heat-inactivated fetal bovine serum (Atlanta Biological, Inc.), 100 units/mL penicillin, and 100 μg/mL streptomycin at 37° C. in 5% CO2.

[6] = system: LNCaP prostate cancer cells; test: MTT cell viability assay, LNCaP prostate cancer cells; assay type: cell-based, human; settings: LNCaP (p53 wild-type, AR+), 24-72 hr; paclitaxel 1 nM
Experimental: as §4

[7] = target: T1, mitochondrial ATP synthase gamma subunit (ATP5C) (Homo sapiens, UniProt P36542); test: Pull-down assay with biotin-labeled peptides and protein identification; assay type: binding; settings: mitochondrial fraction of PC3 cells, biotin-labeled peptide, 16 hr at 4° C.
T1 construct: endogenous in cells; host or cells: PC3 human prostate cancer cells, mitochondrial fraction (detergent extract)
T1 sequence (P36542 26-298): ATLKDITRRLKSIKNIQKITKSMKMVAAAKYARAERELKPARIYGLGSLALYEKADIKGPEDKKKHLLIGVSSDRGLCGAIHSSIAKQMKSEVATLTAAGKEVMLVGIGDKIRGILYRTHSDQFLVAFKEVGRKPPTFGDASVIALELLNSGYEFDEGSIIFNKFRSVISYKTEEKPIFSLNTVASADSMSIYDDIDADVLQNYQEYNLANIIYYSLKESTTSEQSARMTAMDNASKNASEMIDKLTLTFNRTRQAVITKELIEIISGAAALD
From the text: 8A, TEM image of PC3 cells. Representative TEM micrograph of aurB-treated cells depicting the intraritochondrial localization of aurB-GNRs (arrowheads) and mitochondria](Mt) swelling. Scale bar: 600 nm. Mt: mitochondria. […] Coomassie-stained SDS-PAGE gels are shown (8B). The protein band at ˜35 kDa (arrowhead) was identified as ATP5C using mass spectrometry analysis. The identified fragments are indicated in green underlined sequence (SEQ ID NO: 4)(8C).
Pull-down assay and protein identification: PC3 cells were washed twice with PBS, and the mitochondrial fraction was prepared with a Qproteome mitochondria isolation kit (Qiagen). […] The peptides were then preincubated with streptavidin-agarose beads for 4 hr. After washing, the beads were boiled, and the released proteins were subjected to SDS-PAGE analysis. A protein band of ˜35 kDa was subjected to microcapillary LC/MS/MS for protein identification (Harvard Medical School, Taplin Mass Spectrometry Facility). For IB, proteins were transferred to nitrocellulose membranes. After blocking with 5% BSA in TBST, the membranes were incubated with anti-ATP5C antibody at 1:25,000 in 5% BSA/TBST (Abcam) for 16 hr at 4° C. The secondary antibody was applied (anti-goat IgG-HRP; Santa Cruz Biotechnology). The signal was detected using enhanced chemiluminescence (ECL).

[8] = system: PC3 cells; test: JC-1 mitochondrial membrane potential assay; assay type: cell-based, human; settings: PC3, 1, 10 and 100 μM
Experimental: Cells were stained by using JC-1 Mitochondrial Membrane Potential Assay Kits according to the manufacturer's instructions to measure mitochondrial membrane potential, and fluorescence was measured by flow cytometry. 9B, Caspase-3 is involved in aurB-induced apoptosis. […] The inhibitor was used at the indicated concentrations. Mean±SE (N=3).
JC-1 dye (Invitrogen) was used to determine mitochondrial membrane potential. […] After washing with PBS, trypsinized PC3 cells were incubated with JC-1 dye and analyzed by FACS.

[9] = system: LNCaP cells; test: Annexin-V apoptosis assay by flow cytometry, LNCaP; assay type: cell-based, human; settings: 48 hr, Ptxl 1 nM, p28 50 μM, aurA/aurB 0.5-50 μM
Experimental: as §1, §2

[10] = system: DU145 cells; test: Annexin-V apoptosis assay by flow cytometry, DU145; assay type: cell-based, human; settings: DU145, 48 hr; Ptxl 1 nM, p28 50 μM, aurA/aurB 0.5-50 μM
Experimental: as §1, §2

[11] = system: PC3 prostate cancer cells; test: MTT cell viability assay, PC3 prostate cancer cells; assay type: cell-based, human; settings: PC3 (p53-null, AR−), 24-72 hr; paclitaxel 1 nM
Experimental: as §4

[12] = system: PC3 cells; test: Cellular membrane toxicity, LDH leakage assay; assay type: cell-based, human; settings: PC3, 0.2-200 μM, 37° C.
Experimental: FIG. 6A-6B: Cellular membrane toxicity assays. […] Cells treated with lysis buffer were defined as having 100% LDH release. Mean±SE (N=3).
Cellular membrane toxicity: LDH assays were performed as we previously described (Cha et al., Cancer Research 2020, 80: 1615-1623).

LVK GGE AEA ANI ANA GLS AGP AAN YLPA [aurA]
apoptotic cell death [1]: very little effect | anti-proliferative effect (MTT cell viability) [2]: little effect at any concentration tested | water solubility [3]: highly water-soluble | apoptotic cell death [4]: very little effect | cytotoxic effect (MTT cell viability) [5]: not active | cytotoxic effect (MTT cell viability) [6]: not active | binding to ATP5C (pull-down of ~35 kDa protein, IB) [7]: did not | effect on mitochondrial membrane potential (JC-1) [8]: did not impact | apoptotic cell death [9]: very little effect | apoptotic cell death [10]: very little effect | cytotoxic effect (MTT cell viability) [11]: not active | cellular membrane toxicity (LDH release) [12]: Neither aurA nor aurB induced cellular membrane toxicity at any concentrations

From patent US20250179126A1, “A NOVEL PEPTIDE FROM A PHOTOSYNTHETIC BACERIUM DIRECTLY TARGETS MITOCHONDRIA TO TRIGGER APOPTOSIS IN ADVANCED PROSTATE CANCER CELLS” (priority 2022, published 2025)
